Experimental data published in PubChem BioAssay AID1963865 (Molecular Pharmacology Branch, DTP, NCI, 2024).

Tested on: KRAS PDC multicell spheroid viability
Assay: Anticancer human tumor 825966-067-R-J1-PDC patient-derived colon carcinoma cell line growth inhibition [KRAS2]
Settings: for IC50: curve of first compound; for viability, T/C: stronger effect = lower value
Summary of the method: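 KRAS-mutant tumor cells were grown as spheroids with HUVEC endothelial cells and human MSCs as stroma. Targeted agents were tested alone and with KRAS pathway inhibitors. Doses started at or near clinical Cmax, or 10 microM, descending half-log.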

[1] = second compound 0.0316 µM, first compound 0.000316 µM
[2] = second compound 0.0316 µM, first compound 0.001 µM
[3] = second compound 0.0316 µM, first compound 0.00316 µM
[4] = second compound 0.0316 µM, first compound 0.01 µM
[5] = second compound 0.0316 µM, first compound 0.0316 µM
[6] = second compound 0.1 µM, first compound 0.000316 µM
[7] = second compound 0.1 µM, first compound 0.001 µM
[8] = second compound 0.1 µM, first compound 0.00316 µM
[9] = second compound 0.1 µM, first compound 0.01 µM
[10] = second compound 0.1 µM, first compound 0.0316 µM
[11] = second compound 0.316 µM, first compound 0.000316 µM
[12] = second compound 0.316 µM, first compound 0.001 µM
[13] = second compound 0.316 µM, first compound 0.00316 µM
[14] = second compound 0.316 µM, first compound 0.01 µM
[15] = second compound 0.316 µM, first compound 0.0316 µM
[16] = second compound 1 µM, first compound 0.000316 µM
[17] = second compound 1 µM, first compound 0.001 µM
[18] = second compound 1 µM, first compound 0.00316 µM
[19] = second compound 1 µM, first compound 0.01 µM
[20] = second compound 1 µM, first compound 0.0316 µM
[21] = second compound 3.16 µM, first compound 0.000316 µM
[22] = second compound 3.16 µM, first compound 0.001 µM
[23] = second compound 3.16 µM, first compound 0.00316 µM
[24] = second compound 3.16 µM, first compound 0.01 µM
[25] = second compound 3.16 µM, first compound 0.0316 µM
[26] = second compound 0.0316 µM, first compound 0.1 µM
[27] = second compound 0.1 µM, first compound 0.1 µM
[28] = second compound 0.316 µM, first compound 0.1 µM
[29] = second compound 1 µM, first compound 0.1 µM
[30] = second compound 3.16 µM, first compound 0.1 µM
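Note: spheroids exposed to compounds for 7 days.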
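Throughout, for viability, T/C: 100% = DMSO vehicle control viability.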

Structure (SMILES)	IC50 (second compound 0.0316 µM)	IC50 (second compound 0.1 µM)	IC50 (second compound 0.316 µM)	IC50 (second compound 1 µM)	IC50 (second compound 3.16 µM)	viability, T/C [1]	viability, T/C [2]	viability, T/C [3]	viability, T/C [4]	viability, T/C [5]	viability, T/C [6]	viability, T/C [7]	viability, T/C [9]	viability, T/C [10]	viability, T/C [14]	viability, T/C [15]	viability, T/C [19]	viability, T/C [20]	viability, T/C [24]	viability, T/C [25]	other results
CC(=O)Nc1cccc(-n2c(=O)n(C3CC3)c(=O)c3c(Nc4ccc(I)cc4F)n(C)c(=O)c(C)c32)c1 + C=CC(=O)N1CCN(c2nc(OCC3CCCN3C)nc3c2CCN(c2cccc4cccc(C)c24)C3)CC1CC#N	31.6 nM	> 31.6 nM	23.1 nM	> 31.6 nM	5.99 nM	94.8%	119%	128%	101%	49.8%	92.6%	97.5%	94.9%	50.5%	92.1%	33.9%	71.4%	53.4%	5.74%	16.1%	viability, T/C (second compound 0.0316 µM, first compound 0.0001 µM): 92%; viability, T/C (second compound 0.1 µM, first compound 0.0001 µM): 84%; viability, T/C [8]: 111%; viability, T/C (second compound 0.316 µM, first compound 0.0001 µM): 83.6%; viability, T/C [11]: 92.1%; viability, T/C [12]: 96.7%; viability, T/C [13]: 110%; viability, T/C (second compound 1 µM, first compound 0.0001 µM): 110%; viability, T/C [16]: 95%; viability, T/C [17]: 102%; viability, T/C [18]: 106%; viability, T/C (second compound 3.16 µM, first compound 0.0001 µM): 62.2%; viability, T/C [21]: 107%; viability, T/C [22]: 105%; viability, T/C [23]: 121%
CC(=O)OC12COC1CC(O)C1(C)C(=O)C(O)C3=C(C)C(OC(=O)C(O)C(NC(=O)OC(C)(C)C)c4ccccc4)CC(O)(C(OC(=O)c4ccccc4)C21)C3(C)C (stereo not given) + C=CC(=O)N1CCN(c2nc(OCC3CCCN3C)nc3c2CCN(c2cccc4cccc(C)c24)C3)CC1CC#N	< 10 nM	< 10 nM	< 10 nM	< 10 nM	< 10 nM				24.8%	28%			27%	29.6%	23%	21.2%	28.6%	25%	31.7%	23.2%	viability, T/C [26]: 23.1%; viability, T/C (second compound 0.0316 µM, first compound 0.316 µM): 23.1%; viability, T/C (second compound 0.0316 µM, first compound 1 µM): 24.5%; viability, T/C (second compound 0.0316 µM, first compound 3.16 µM): 40.3%; viability, T/C [27]: 32.1%; viability, T/C (second compound 0.1 µM, first compound 0.316 µM): 22%; viability, T/C (second compound 0.1 µM, first compound 1 µM): 28.6%; viability, T/C (second compound 0.1 µM, first compound 3.16 µM): 35.9%; viability, T/C [28]: 25.4%; viability, T/C (second compound 0.316 µM, first compound 0.316 µM): 24.5%; viability, T/C (second compound 0.316 µM, first compound 1 µM): 26.2%; viability, T/C (second compound 0.316 µM, first compound 3.16 µM): 27.3%; viability, T/C [29]: 30%; viability, T/C (second compound 1 µM, first compound 0.316 µM): 20%; viability, T/C (second compound 1 µM, first compound 1 µM): 27%; viability, T/C (second compound 1 µM, first compound 3.16 µM): 26.1%; viability, T/C [30]: 21.2%; viability, T/C (second compound 3.16 µM, first compound 0.316 µM): 23.8%; viability, T/C (second compound 3.16 µM, first compound 1 µM): 17.2%; viability, T/C (second compound 3.16 µM, first compound 3.16 µM): 29.6%
CN(C)C/C=C/C(=O)Nc1cc2c(Nc3ccc(F)c(Cl)c3)ncnc2cc1O[C@H]1CCOC1 + C=CC(=O)N1CCN(c2nc(OCC3CCCN3C)nc3c2CCN(c2cccc4cccc(C)c24)C3)CC1CC#N	> 100 nM	> 100 nM	> 100 nM	> 100 nM	> 100 nM	92%	105%	86%	83.4%	94.5%	114%	107%	94.3%	86.8%	83.8%	77%	98.7%	107%	100%	67.7%	viability, T/C [26]: 99.7%; viability, T/C [8]: 100%; viability, T/C [27]: 88%; viability, T/C [11]: 100%; viability, T/C [12]: 107%; viability, T/C [13]: 74.8%; viability, T/C [28]: 81.4%; viability, T/C [16]: 94.7%; viability, T/C [17]: 84.9%; viability, T/C [18]: 89.3%; viability, T/C [29]: 77.5%; viability, T/C [21]: 111%; viability, T/C [22]: 83.6%; viability, T/C [23]: 87.5%; viability, T/C [30]: 114%
